Measured values taken from patent US8354403B2, “Pyrrolidine derived beta 3 adrenergic receptor agonists” (Merck Sharp & Dohme Corp., priority 2009, dated 2013).
Where two headings read alike, the source gives them in different places. One block for each compound: values may come before it.

Target: T1, human β3 adrenergic receptor (Homo sapiens, UniProt P13945)
T1 construct: expressed in transfected cells; host or cells: Chinese hamster ovary (CHO) cells, stably transfected
Assay: Beta-3 agonist in vitro functional assay: cAMP production (LANCE TR-FRET) in CHO cells stably transfected with the cloned β3 receptor
Assay type: cell-based
Summary of the method: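 CHO cells stably expressing the cloned receptor, in HEPES-buffered HBSS with BSA and 0.6 mM IBMX, 6,000 cells/well, exposed to compound for 30 min at RT. cAMP read by LANCE TR-FRET against a cAMP standard curve. Isoproterenol defines maximal stimulation.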

[1] = Table 4, cAMP, CHO cells, read-out: Human β3 agonist functional activity
[2] = Table 5, cAMP, CHO cells, read-out: Human β3 agonist functional activity
[3] = given as a range, cAMP, CHO cells, read-out: human β3 functional activity
[4] = Table 10, Beta-3 agonist in vitro functional assay, read-out: Human β3 agonist functional activity
[5] = Table 9, Beta-3 agonist in vitro functional assay, read-out: Human β3 agonist functional activity
[6] = Table 8, Beta-3 agonist in vitro functional assay, read-out: Human β3 agonist functional activity
[7] = Table 12, human β3 functional activity given as ranges, read-out: Human β3 agonist functional activity

T1 sequence (P13945 whole entry): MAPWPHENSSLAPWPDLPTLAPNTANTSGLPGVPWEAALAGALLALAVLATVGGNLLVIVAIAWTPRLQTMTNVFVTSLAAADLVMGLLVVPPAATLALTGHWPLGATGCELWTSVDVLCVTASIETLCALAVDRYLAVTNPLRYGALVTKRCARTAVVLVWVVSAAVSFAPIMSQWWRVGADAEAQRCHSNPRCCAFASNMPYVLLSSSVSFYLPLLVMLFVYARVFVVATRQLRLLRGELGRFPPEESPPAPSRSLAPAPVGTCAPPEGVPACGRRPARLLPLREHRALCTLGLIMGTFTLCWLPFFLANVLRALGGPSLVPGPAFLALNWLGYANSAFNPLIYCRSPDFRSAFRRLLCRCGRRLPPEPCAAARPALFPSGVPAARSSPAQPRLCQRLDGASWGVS

SMILES: O=C(c1ccc(C[C@@H]2CC[C@H]([C@H](O)c3ccccc3)N2)cc1)N1CCC(N2Cc3ccccc3NC2=O)CC1 [Example 72]
EC50 [2]: 100 to 999 nM

SMILES: CC[C@@H](C)NC(=O)C(C)N1CCN(C(=O)c2ccc(C[C@@H]3CC[C@H]([C@H](O)c4ccccc4)N3)cc2)CC1 (some centres unmarked) [Example 440]
EC50 [4]: 10 to 99.9 nM

SMILES: NC(=O)C1CCN(C(=O)c2ccc(C[C@@H]3CC[C@H]([C@H](O)c4ccccc4)N3)cc2)CC1 [Example 116]
EC50 [2]: 100 to 999 nM

SMILES: CC(C(=O)NC(C)(C)CO)N1CCN(C(=O)c2ccc(C[C@@H]3CC[C@H]([C@H](O)c4ccccc4)N3)cc2)CC1 (some centres unmarked) [Example 444]
EC50 [4]: 100 to 999 nM

SMILES: O=C(c1ccc(C[C@@H]2CC[C@H]([C@H](O)c3ccccc3)N2)cc1)N1CCN(Cc2ccn[nH]2)CC1 [Example 395]
EC50 [5]: 10 to 99.9 nM

SMILES: Cc1noc(C2CCCCN2C(=O)c2ccc(C[C@@H]3CC[C@H]([C@H](O)c4ccccc4)N3)cc2)n1 (some centres unmarked) [Example 49]
EC50 [1]: 999 to 3000 nM

SMILES: C[C@@H]1CN(C(=O)c2ccc(C[C@@H]3CC[C@H]([C@H](O)c4ccccc4)N3)cc2)CCN1Cc1ccccn1 [Example 527]
EC50 (Table 11, cAMP, CHO cells, read-out: Human β3 agonist functional activity): 10 to 99.9 nM

SMILES: C[C@@H](c1ccccn1)N1CCN(C(=O)c2ccc(C[C@@H]3CC[C@H]([C@H](O)c4ccccc4)N3)cc2)CC1 [Example 431]
EC50 [5]: 10 to 99.9 nM

SMILES: Cc1nccc(OC2CCN(C(=O)c3ccc(C[C@@H]4CC[C@H]([C@H](O)c5ccccc5)N4)cc3)CC2)n1 [Example 154]
EC50 [2]: 100 to 999 nM

SMILES: COC1CN(C(=O)C(C)N2CCN(C(=O)c3ccc(C[C@@H]4CC[C@H]([C@H](O)c5ccccc5)N4)cc3)CC2)C1 (some centres unmarked) [Example 473]
EC50 [4]: 10 to 99.9 nM

SMILES: O=C(OCc1ccccc1)C1C2CN(C(=O)c3ccc(C[C@@H]4CC[C@H]([C@H](O)c5ccccc5)N4)cc3)CC21 (some centres unmarked) [Example 229]
EC50 (Table 7, cAMP, CHO cells, ranges as given for Tables 6 and 7, read-out: Human β3 agonist functional activity): < 1 nM

SMILES: O=C1OC2(CCN(C(=O)c3ccc(C[C@@H]4CC[C@H]([C@H](O)c5ccccc5)N4)cc3)CC2)c2cccnc21 [Example 286]
EC50 [6]: 10 to 99.9 nM

SMILES: Cc1nonc1C1CCCN1C(=O)c1ccc(C[C@@H]2CC[C@H]([C@H](O)c3ccccc3)N2)cc1 (some centres unmarked) [Example 14]
EC50 [1]: 100 to 999 nM

SMILES: CS(=O)(=O)N1CCN(C(=O)c2ccc(C[C@@H]3CC[C@H]([C@H](O)c4ccccc4)N3)cc2)CC1 [Example 345]
EC50 [5]: 100 to 999 nM

SMILES: CC(c1ncccc1F)N1CCN(C(=O)c2ccc(C[C@@H]3CC[C@H]([C@H](O)c4ccccc4)N3)cc2)CC1 (some centres unmarked) [Example 425]
EC50 [5]: 10 to 99.9 nM

SMILES: O=C1OC2(CCN(C(=O)c3ccc(C[C@@H]4CC[C@H]([C@H](O)c5ccccc5)N4)cc3)CC2)c2scnc21 [Example 289]
EC50 [6]: 10 to 99.9 nM

SMILES: Cc1cnnn1C1CCN(C(=O)c2ccc(C[C@@H]3CC[C@H]([C@H](O)c4ccccc4)N3)cc2)CC1 [Example 96]
EC50 [2]: 100 to 999 nM

SMILES: O=C(c1ccc(C[C@@H]2CC[C@H]([C@H](O)c3ccccc3)N2)cc1)N1CCC2(CC1)C(=O)NCC2c1ccccc1 (some centres unmarked) [Example 261]
EC50 [6]: < 1 nM

SMILES: CC(C(=O)N1CCCC2(CCCCO2)C1)N1CCN(C(=O)c2ccc(C[C@@H]3CC[C@H]([C@H](O)c4ccccc4)N3)cc2)CC1 (some centres unmarked) [Example 498]
EC50 [4]: 10 to 99.9 nM

Continued, values first:

EC50 [1]: 100 to 999 nM
SMILES: O=C(c1ccc(C[C@@H]2CC[C@H]([C@H](O)c3ccccc3)N2)cc1)N1CC2CN(Cc3ccccn3)CC2C1 (some centres unmarked) [Example 17]

EC50 [3]: 10 to 99.9 nM
SMILES: O=C(c1ccc(C[C@@H]2CC[C@H]([C@H](O)c3ccccc3)N2)cc1)N1CCC(n2cccn2)CC1 [Example 64, (R)-phenyl[(2R,5S)-5-(4-{[4-(1H-pyrazol-1-yl)-piperidin-1-yl]carbonyl}benzyl)pyrrolidine-2-yl]methanol]

EC50 [4]: 10 to 99.9 nM
SMILES: CC(C(=O)N1CCc2ccncc2C1)N1CCN(C(=O)c2ccc(C[C@@H]3CC[C@H]([C@H](O)c4ccccc4)N3)cc2)CC1 (some centres unmarked) [Example 506]

EC50 [6]: 100 to 999 nM
SMILES: CCCN(CCC)C(=O)CC1(c2ccccc2)CCN(C(=O)c2ccc(C[C@@H]3CC[C@H]([C@H](O)c4ccccc4)N3)cc2)CC1 [Example 248]

EC50 [1]: 10 to 99.9 nM
SMILES: O=C(c1ccc(C[C@@H]2CC[C@H]([C@H](O)c3ccccc3)N2)cc1)N1CC2CC(n3cnnn3)CC2C1 (some centres unmarked) [Example 23]

EC50 [1]: 10 to 99.9 nM
SMILES: O=C(c1ccc(C[C@@H]2CC[C@H]([C@H](O)c3ccccc3)N2)cc1)N1Cc2c[nH]nc2C1 [Example 27]

EC50 [6]: 10 to 99.9 nM
SMILES: O=C(c1ccc(C[C@@H]2CC[C@H]([C@H](O)c3ccccc3)N2)cc1)N1CCC2(CC1)NCNC2=O [Example 258]

EC50 [2]: 100 to 999 nM
SMILES: O=C(c1ccc(C[C@@H]2CC[C@H]([C@H](O)c3ccccc3)N2)cc1)N1CCC(OCc2ccccn2)CC1 [Example 163]

EC50 [2]: 10 to 99.9 nM
SMILES: O=C(c1ccc(C[C@@H]2CC[C@H]([C@H](O)c3ccccc3)N2)cc1)N1CCC(c2nn[nH]n2)CC1 [Example 105]

EC50 [1]: 100 to 999 nM
SMILES: O=C(c1ccc(C[C@@H]2CC[C@H]([C@H](O)c3cccnc3)N2)cc1)N1CCCC1c1ccccc1F (some centres unmarked) [Example 16]

EC50 [6]: 10 to 99.9 nM
SMILES: O=C(c1ccc(C[C@@H]2CC[C@H]([C@H](O)c3ccccc3)N2)cc1)N1CCC2(CCNC2=O)CC1 [Example 250]

EC50 [6]: 1 to 9.9 nM
SMILES: O=C(c1ccc(C[C@@H]2CC[C@H]([C@H](O)c3ccccc3)N2)cc1)N1CCC2(CCc3ccccc3S2(=O)=O)CC1 [Example 336]

EC50 [4]: < 1 nM
SMILES: CC(C(=O)N1CCc2nc(C3CC3)sc2C1)N1CCN(C(=O)c2ccc(C[C@@H]3CC[C@H]([C@H](O)c4ccccc4)N3)cc2)CC1 (some centres unmarked) [Example 505]

EC50 [2]: 10 to 99.9 nM
SMILES: O=C(c1ccc(C[C@@H]2CC[C@H]([C@H](O)c3ccccc3)N2)cc1)N1CCC(COc2ccncn2)CC1 [Example 162]

EC50 [6]: 100 to 999 nM
SMILES: O=C(c1ccc(C[C@@H]2CC[C@H]([C@H](O)c3ccccc3)N2)cc1)N1CCC2(CCCNC2=O)CC1 [Example 256]

EC50 [3]: 10 to 99.9 nM
SMILES: O=C(c1ccc(C[C@@H]2CC[C@H]([C@H](O)c3ccccc3)N2)cc1)N1CCC(c2cscn2)CC1 [Example 66, (R)-phenyl[(2R,5S)-5-(4-{[4-(1,3-thiazol-4-yl)-piperidin-1-yl]carbonyl}benzyl)pyrrolidine-2-yl]methanol]

EC50 [2]: 1 to 9.9 nM
SMILES: O=C(c1ncc(-c2cccc(F)n2)o1)C1CCN(C(=O)c2ccc(C[C@@H]3CC[C@H]([C@H](O)c4ccccc4)N3)cc2)CC1 [Example 121]

EC50 [2]: 100 to 999 nM
SMILES: O=C(c1ccc(C[C@@H]2CC[C@H]([C@H](O)c3ccccc3)N2)cc1)N1CCC(c2ncc(-c3ccccc3)[nH]2)CC1 [Example 79]

EC50 [5]: 100 to 999 nM
SMILES: O=C(c1ccc(C[C@@H]2CC[C@H]([C@H](O)c3ccccc3)N2)cc1)N1CCN(c2ccc3c(c2)OCO3)CC1 [Example 353]

EC50 [1]: 10 to 99.9 nM
SMILES: CCOC(=O)C1(S(C)(=O)=O)CCCN(C(=O)c2ccc(C[C@@H]3CC[C@H]([C@H](O)c4ccccc4)N3)cc2)C1 (some centres unmarked) [Example 36]

EC50 [6]: 10 to 99.9 nM
SMILES: O=C(c1ccc(C[C@@H]2CC[C@H]([C@H](O)c3ccccc3)N2)cc1)N1CCC2(CC1)NC(=O)N(Cc1ccccc1)C2=O [Example 269]

EC50 [4]: 10 to 99.9 nM
SMILES: CC(C(=O)N1C[C@H](F)[C@@H](F)C1)N1CCN(C(=O)c2ccc(C[C@@H]3CC[C@H]([C@H](O)c4ccccc4)N3)cc2)CC1 (some centres unmarked) [Example 476]

EC50 [7]: 1 to 9.9 nM
SMILES: O=C(c1ccc(CC2CCC(C(O)c3cccnc3)N2)cc1)N1CCC2(CC1)C(=O)NCC2c1ccc(F)cc1 (single isomer, unassigned) [Example 556]

EC50 [7]: 10 to 99.9 nM
SMILES: CC(c1ncco1)N1CCN(C(=O)c2ccc(CC3CCC(C(O)c4ccccc4)N3)cc2)CC1 (single isomer, unassigned) [Example 584]

EC50 [6]: 1 to 9.9 nM
SMILES: O=C1OC2(CCN(C(=O)c3ccc(C[C@@H]4CC[C@H]([C@H](O)c5cccnc5)N4)cc3)CC2)CC1Cc1ccc(F)cc1 (some centres unmarked) [Example 277]
